Experiments:
recombinant human KIF18A = target: T1, recombinant human KIF18A (Homo sapiens, UniProt Q8NI77); assay: Inhibition on KIF18A enzyme activity (ADP-Glo); type: biochemical; conditions: recombinant human KIF18A 100 nM, ATP 60 μM
T1 construct: purchased GenScript
Experimental: Inhibition degrees of the compounds of the present invention on recombinant human KIF18A enzyme activity in vitro were determined by the following method. An ADP-Glo™ Kinase Assay kit (article number V9102) from Promega Company was used in this method. Detailed experimental operation can be referred to the instruction of the kit.
The reaction was carried out in a 384-well microplate. The test compound and the recombinant human KIF18A protein (final concentration of 100 nM, entrusted to GenScript for expression) were added into the wells and incubated at room temperature for 20 minutes, and subsequently, ATP solution (component V915A from the ADP-Glo™ Kinase Assay kit, final concentration of 60 μM) was added to the reaction solution and the obtained system was incubated at room temperature for 20 minutes. Subsequently, 5 μL of ADP-Glo Reagent was added to the reaction system and the obtained system was incubated at room temperature for 50 minutes. Then, 10 μL of Kinase Detection Reagent was added to the reaction system, and the obtained system was incubated at room temperature for 30 minutes. After the incubation was ended, a chemiluminiscence intensity value of each well was determined by a microplate reader in a Luminescence mode.

OVCAR-3 cells = assay: Inhibition on OVCAR-3 cell proliferation (CellTiter-Glo); type: cell-based; conditions: Homo sapiens, OVCAR-3 cells (TP53 R248Q mutation), 72 hours
Experimental: (§1) Influences of the compounds of the present invention on OVCAR-3 cell proliferation were determined by the following method. OVCAR-3 cells (containing TP53 R248Q mutation) were purchased from the Cell Bank of Shanghai Institute of Biochemistry and Cell Biology, Chinese Academy of Sciences, and cultured in an RPMI 1640 culture medium containing 1000 fetal bovine serum, 100 U penicillin and 100 μg/mL streptomycin. A cell viability was determined by a CellTiter-Glo® Luminescent Cell Viability Assay kit (Promega, article number G7573).
(§2) An experimental method was operated according to steps in the instruction of the kit, which was briefly described as follows: a test compound was dissolved in DMSO first to prepare a 10 mM stock solution, then the stock solution was diluted with the above RPMI 1640 culture medium to prepare a test sample, and a final concentration of the compound was in a range of 1000 nM-0.015 nM. Cells in a logarithmic growth phase were inoculated into a 96-well cell culture plate at a density of 1000 cells per well, cultured in a 5% CO2 incubator at 37° C. overnight, and then the test compound was added to continuously culture for 72 hours. After the culture was ended, 50 μL of CellTiter-Glo detection solution was added to each well, the plates were shaken for 5 minutes, and then allowed to stand for 10 minutes, and subsequently, a luminous value of each well of sample was read by a microplate reader in a Luminescence mode. By comparing with a numerical value of a control group (0.3% DMSO), a percentage inhibition rate of the compound at each concentration was calculated, and then nonlinear regression analysis was carried out based on concentration logarithm-inhibition rate of the compound in GraphPad Prism 5 software, so as to obtain an IC50 value of the compound in inhibition on cell proliferation, which are shown in Table 1.

HT-29 cells = assay: Inhibition on HT-29 cell proliferation (CellTiter-Glo); type: cell-based; conditions: Homo sapiens, HT-29 cells (TP53 R273H mutation), 120 hours
Experimental: as §1, with “HT-29” for “OVCAR-3”, “R273H” for “R248Q”, “a McCOY's 5A” for “an RPMI 1640”, “10%” for “1000”
as §2, with “McCOY's 5A” for “RPMI 1640”, “120” for “72”, “µL” for “μL”, “2.” for “1.”

T1 sequence (Q8NI77 whole entry): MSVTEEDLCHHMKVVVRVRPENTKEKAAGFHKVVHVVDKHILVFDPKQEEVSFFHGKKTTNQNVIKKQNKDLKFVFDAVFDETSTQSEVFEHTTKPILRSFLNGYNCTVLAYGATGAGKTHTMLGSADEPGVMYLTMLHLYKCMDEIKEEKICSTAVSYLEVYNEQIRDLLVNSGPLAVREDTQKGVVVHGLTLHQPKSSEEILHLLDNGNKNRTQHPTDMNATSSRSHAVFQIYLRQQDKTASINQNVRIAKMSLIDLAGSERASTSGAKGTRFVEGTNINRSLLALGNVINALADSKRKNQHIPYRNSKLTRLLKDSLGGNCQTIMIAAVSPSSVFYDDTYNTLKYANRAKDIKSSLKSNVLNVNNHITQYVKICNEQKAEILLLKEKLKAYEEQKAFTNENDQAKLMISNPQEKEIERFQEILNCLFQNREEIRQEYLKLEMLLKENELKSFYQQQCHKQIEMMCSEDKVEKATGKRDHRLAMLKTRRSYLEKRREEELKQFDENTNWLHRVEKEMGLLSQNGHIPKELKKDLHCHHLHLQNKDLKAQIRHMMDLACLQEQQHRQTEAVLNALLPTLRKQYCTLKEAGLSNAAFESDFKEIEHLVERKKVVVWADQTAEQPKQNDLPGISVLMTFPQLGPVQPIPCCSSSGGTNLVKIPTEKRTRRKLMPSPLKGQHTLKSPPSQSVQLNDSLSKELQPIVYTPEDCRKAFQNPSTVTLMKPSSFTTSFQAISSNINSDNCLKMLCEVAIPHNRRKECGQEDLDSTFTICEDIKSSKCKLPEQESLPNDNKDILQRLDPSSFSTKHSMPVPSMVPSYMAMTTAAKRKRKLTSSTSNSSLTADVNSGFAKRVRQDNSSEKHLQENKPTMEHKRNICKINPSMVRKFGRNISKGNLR
T1 sequence (P68363 whole entry partner): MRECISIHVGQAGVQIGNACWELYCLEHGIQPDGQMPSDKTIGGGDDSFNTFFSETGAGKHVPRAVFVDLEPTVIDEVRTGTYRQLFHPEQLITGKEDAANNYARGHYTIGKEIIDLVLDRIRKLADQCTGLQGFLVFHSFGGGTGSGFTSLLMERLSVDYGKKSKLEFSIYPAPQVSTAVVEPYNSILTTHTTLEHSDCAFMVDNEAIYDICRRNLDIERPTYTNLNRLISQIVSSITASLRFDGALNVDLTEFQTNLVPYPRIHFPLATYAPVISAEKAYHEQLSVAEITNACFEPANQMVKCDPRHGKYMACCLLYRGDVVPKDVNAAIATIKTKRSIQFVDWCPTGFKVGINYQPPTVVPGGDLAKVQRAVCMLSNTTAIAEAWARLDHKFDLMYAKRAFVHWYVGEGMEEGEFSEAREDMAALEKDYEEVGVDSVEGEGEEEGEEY
T1 sequence (Q9BVA1 whole entry partner): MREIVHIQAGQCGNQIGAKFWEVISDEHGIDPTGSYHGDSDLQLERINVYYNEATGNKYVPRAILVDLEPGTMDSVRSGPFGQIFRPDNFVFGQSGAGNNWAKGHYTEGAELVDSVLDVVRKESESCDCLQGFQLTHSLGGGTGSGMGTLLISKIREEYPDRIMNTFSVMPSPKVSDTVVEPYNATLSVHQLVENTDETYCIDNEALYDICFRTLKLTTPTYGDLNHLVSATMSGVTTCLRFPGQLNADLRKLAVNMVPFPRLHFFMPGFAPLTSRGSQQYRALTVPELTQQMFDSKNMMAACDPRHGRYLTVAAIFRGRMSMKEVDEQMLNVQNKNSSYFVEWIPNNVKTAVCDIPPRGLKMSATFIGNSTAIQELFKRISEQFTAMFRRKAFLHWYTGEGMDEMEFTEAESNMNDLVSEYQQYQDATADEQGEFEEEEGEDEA

Row | IC50 (recombinant human KIF18A) [nM] | IC50 (OVCAR-3 cells) [nM] | IC50 (HT-29 cells) [nM] | Compound
1 | 267 | – | – | CCS(=O)(=O)Nc1ccc(C(=O)Nc2cc3c(c(CC(C)C)c2)OCC3)c(N2CCC3(CC2)CC3)c1 [Example 10, 4-(ethylsulfonamido)-N-(7-isobutyl-2,3-dihydrobenzofuran-5-yl)-2-(6-azaspiro[2.5]octan-6-yl)benzamide]
2 | 142 | 4.3 | 3.9 | CCS(=O)(=O)Nc1ccc(C(=O)Nc2cc3c(c(N4CCC(F)(F)CC4)c2)C(=O)N(C)C3)c(N2CCC3(CC2)CC3)c1 [Example 2, N-(7-(4,4-difluoropiperidin-1-yl)-2-methyl-1-oxoisoindolin-5-yl)-4-(ethylsulfonamido)-2-(6-azaspiro[2.5]octan-6-yl)benzamide]
3 | 263 | – | – | CCS(=O)(=O)Nc1ccc(C(=O)Nc2cc3c(c(C4(O)CCC(F)(F)CC4)c2)OCC3)c(N2CCC3(CC2)CC3)c1 [Example 11, N-(7-(4,4-difluoro-1-hydroxycyclohexyl)-2,3-dihydrobenzofuran-5-yl)-4-(ethylsulfonamido)-2-(6-azaspiro[2.5]octan-6-yl)benzamide]
4 | 212 | – | – | CCS(=O)(=O)Nc1ccc(C(=O)Nc2cc3c(c(N4CCC5(CC4)CC5)c2)OCC3)c(N2CCC3(CC2)CC3)c1 [Example 4, N-(7-(6-azaspiro[2.5]octan-6-yl)-2,3-dihydrobenzofuran-5-yl)-4-(ethylsulfonamido)-2-(6-azaspiro[2.5]octan-6-yl)benzamide]
5 | 134 | – | – | CCS(=O)(=O)Nc1ccc(C(=O)Nc2cc3c(c(N4CCC(F)(F)C4)c2)OCC3)c(N2CCC3(CC2)CC3)c1 [Example 5, N-(7-(3,3-difluoropyrrolidine-1-yl)-2,3-dihydrobenzofuran-5-yl)-4-(ethylsulfonamido)-2-(6-azaspiro[2.5]octan-6-yl)benzamide]
6 | 209 | 36.7 | 35.7 | CCS(=O)(=O)Nc1ccc(C(=O)Nc2cc(N3CCC(F)(F)CC3)c3cnn(C)c3c2)c(N2CCC3(CC2)CC3)c1 [Example 16, N-(4-(4,4-difluoropiperidin-1-yl)-1-methyl-1H-indazol-6-yl)-4-(ethylsulfonamido)-2-(6-azaspiro[2.5]octan-6-yl)benzamide]
7 | – | 18.4 | 23.6 | CCS(=O)(=O)Nc1ccc(C(=O)Nc2cc3c(c(N4CCC(F)(F)CC4)c2)OCCC3)c(N2CCC3(CC2)CC3)c1 [Example 15]
8 | 109 | 1.96 | – | CCS(=O)(=O)Nc1ccc(C(=O)Nc2cc3c(c(N4CCOCC4)c2)C(=O)N(C)C3)c(N2CCC3(CC2)CC3)c1 [Example 27, 4-(ethylsulfonamido)-N-(2-methyl-7-morpholino-1-oxoisoindolin-5-yl)-2-(6-azaspiro[2.5]octan-6-yl)benzamide]
9 | 72.5 | 11.2 | 6.6 | CCS(=O)(=O)Nc1ccc(C(=O)Nc2cc3c(c(N4CCCCC4)c2)OCC3)c(N2CCC3(CC2)CC3)c1 [Example 3, 4-(ethylsulfonamido)-N-(7-(piperidin-1-yl)-2,3-dihydrobenzofuran-5-yl)-2-(6-azaspiro[2.5]octan-6-yl)benzamide]
10 | 173 | – | – | O=C(Nc1cc2c(c(C3(O)CCC(F)(F)CC3)c1)OCC2)c1ccc(NS(=O)(=O)C2CC2)cc1N1CCC2(CC1)CC2 [Example 12, 4-(cyclopropanesulfonamido)-N-(7-(4,4-difluoro-1-hydroxycyclohexyl)-2,3-dihydrobenzofuran-5-yl)-2-(6-azaspiro[2.5]octan-6-yl)benzamide]
11 | 157 | 11 | 7.8 | O=C(Nc1cc2c(c(N3CCC(F)(F)CC3)c1)OCC2)c1ccc(NS(=O)(=O)C2CC2)cc1N1CCC2(CC1)CC2 [Example 7, 4-(cyclopropanesulfonamido)-N-(7-(4,4-difluoropyridin-1-yl)-2,3-dihydrobenzofuran-5-yl)-2-(6-azaspiro[2.5]octan-6-yl)benzamide]
12 | 90.6 | – | – | CCS(=O)(=O)Nc1ccc(C(=O)Nc2cc3c(c(C4CC4)c2)OCC3)c(N2CCC3(CC2)CC3)c1 [Example 8, N-(7-cyclopropyl-2,3-dihydrobenzofuran-5-yl)-4-(ethylsulfonamido)-2-(6-azaspiro[2.5]octan-6-yl)benzamide]
13 | 98.5 | 33.2 | – | CCS(=O)(=O)Nc1ccc(C(=O)Nc2cc(N3CCC(F)(F)CC3)c3oc(C)nc3c2)c(N2CCC3(CC2)CC3)c1 [Example 22, N-(7-(4,4-difluoropiperidin-1-yl)-2-methylbenzo[d]oxazol-5-yl)-4-(ethylsulfonamido)-2-(6-azaspiro[2.5]octan-6-yl)benzamide]
14 | 197 | 20.3 | – | CCS(=O)(=O)Nc1ccc(C(=O)Nc2cc(N3CCC(F)(F)CC3)c3cn[nH]c3c2)c(N2CCC3(CC2)CC3)c1 [Example 20, N-(4-(4,4-difluoropiperidin-1-yl)-1H-indazol-6-yl)-4-(ethylsulfonamido)-2-(6-azaspiro[2.5]octan-6-yl)benzamide]
15 | 198 | 33.6 | – | CCS(=O)(=O)Nc1ccc(C(=O)Nc2cc(N3CCC(F)(F)C3)c3nn(C)cc3c2)c(N2CCC3(CC2)CC3)c1 [Example 25, N-(7-(3,3-difluoropyrrolidin-1-yl)-2-methyl-2H-indazol-5-yl)-4-(ethylsulfonamido)-2-(6-azaspiro[2.5]octan-6-yl)benzamide]
16 | 123 | 3.6 | 5.8 | CCS(=O)(=O)Nc1ccc(C(=O)Nc2cc3c(c(N4CCC(F)(F)CC4)c2)C(=O)NC3)c(N2CCC3(CC2)CC3)c1 [Example 23, N-(7-(4,4-difluoropiperidin-1-yl)-1-oxoisoindolin-5-yl)-4-(ethylsulfonamido)-2-(6-azaspiro[2.5]octan-6-yl)benzamide]
17 | 256 | – | – | Cn1cc2cc(NC(=O)c3ccc(NS(=O)(=O)C4CC4)cc3N3CCC4(CC3)CC4)cc(N3CCC(F)(F)CC3)c2n1 [Example 26]
18 | 291 | 5.5 | 7.3 | CCS(=O)(=O)Nc1ccc(C(=O)Nc2cc3c(c(N4CCC(F)(F)CC4)c2)OCO3)c(N2CCC3(CC2)CC3)c1 [Example 13, N-(7-(4,4-difluoropiperidin-1-yl)benzo[d][1,3]dioxol-5-yl)-4-(ethylsulfonamido)-2-(6-azaspiro[2.5]octan-6-yl)benzamide]
19 | 60.9 | 9.1 | 10.7 | CCS(=O)(=O)Nc1ccc(C(=O)Nc2cc3c(c(N4CC(F)(F)C4)c2)OCC3)c(N2CCC3(CC2)CC3)c1 [Example 6, N-(7-(3,3-difluoroazetidine-1-yl)-2,3-dihydrobenzofuran-5-yl)-4-(ethylsulfonamido)-2-(6-azaspiro[2.5]octan-6-yl)benzamide]
20 | 280 | 6.6 | – | CCS(=O)(=O)Nc1ccc(C(=O)Nc2cc(N3CCC(F)(F)CC3)c3cn(C)nc3c2)c(N2CCC3(CC2)CC3)c1 [Example 17, N-(4-(4,4-difluoropiperidin-1-yl)-2-methyl-2H-indazol-6-yl)-4-(ethylsulfonamido)-2-(6-azaspiro[2.5]octan-6-yl)benzamide]
